According to patent US20250281512A1, “BUFFERING AGENT-CONTAINING COMPOSITIONS AND METHODS OF USING SAME” (KNOW BIO, LLC, priority 2022, published 2025):

Test: Effect of buffer concentration on osmolality
Assay type: physicochemical
Description: The effect of buffer concentration on osmolality was measured for HEPES and potassium phosphate buffer systems and plotted in FIG. 8A. With HEPES, a higher buffer concentration can be achieved with a lower osmolality (slope 1.37 mOsmol/Kg per mMoles/L HEPES), as compared to phosphate buffers (slope 2.21 mOsmol/Kg per mMoles/L phosphate).

Compound | slope of osmolality against buffer concentration [mOsmol/Kg per mMoles/L]
phosphate | 2.21
O=S(=O)(O)CCN1CCN(CCO)CC1 [HEPES, 4-(2-hydroxyethyl)-1-piperazineethanesulfonic acid] | 1.37
